Source: patent US20170071990A1 (Pizeta Group Srl, priority 2014, published 2017)

Columns and labels:
Lactobacillus rhamnosus = conditions: L. rhamnosus single culture, 24 hours at 37° C., 5% CO2, 0.625% boric acid; MRS without boric acid 7.45 × 10^6
Lactobacillus jensenii = conditions: L. jensenii single culture, 24 hours at 37° C., 5% CO2, 0.625% boric acid; MRS without boric acid 7.63 × 10^6
Gardnerella vaginalis = conditions: summary statement of the description
[1] = vaginal suppositories 600 mg/ovule, throughout the duration of the treatment; cited from earlier work
[2] = tested on: lactobacilli tested, either alone or in combination; conditions: 0.625% boric acid
Lactobacillus crispatus = conditions: L. crispatus single culture, 24 hours at 37° C., 5% CO2, 0.625% boric acid; MRS without boric acid 1.19 × 10^7
Candida albicans [3] = conditions: summary statement of the description
Candida albicans [4] = conditions: cited from earlier work
[5] = tested on: mixture of four lactobacilli; conditions: mix of four lactobacilli, 24 hours at 37° C., 5% CO2, 0.625% boric acid; MRS without boric acid 7.63 × 10^6
Lactobacillus gasseri = conditions: L. gasseri single culture, 24 hours at 37° C., 5% CO2, 0.625% boric acid; MRS without boric acid 7.28 × 10^6
[6] = low concentrations, non-therapeutic doses, first 24 hours

## OB(O)O [boric acid]
Lactobacillus rhamnosus
  lactobacilli culture count, MRS with boric acid: 3.17 × 10^6
Lactobacillus jensenii
  lactobacilli culture count, MRS with boric acid: 7.47 × 10^6
Gardnerella vaginalis
  activity against Gardnerella vaginalis: poor activity
[1]
  circulation levels of boric acid: under 1 μg/ml
[2]
  inhibitory effect on the growth of the lactobacilli: no inhibitory effect
Lactobacillus crispatus
  lactobacilli culture count, MRS with boric acid: 6.29 × 10^6
Candida albicans [3]
  activity against Candida albicans: good activity
Candida albicans [4]; in vitro tests
  pH at which the substance completely inhibits the growth of Candida albicans: 5-5.9
Candida albicans [4]; [6]
  cellular ergosterol: decrease
  inhibition of the micro-organisms growth, planktonic and biofilm form: moderate inhibition
[5]
  lactobacilli culture count, MRS with boric acid: 7.40 × 10^6
Lactobacillus gasseri
  lactobacilli culture count, MRS with boric acid: 2.37 × 10^6
